Literature values in US20240216394A1, “GOLEXANOLONE FOR USE IN THE TREATMENT OF FATIGUE OR COGNITIVE IMPAIRMENT IN LIVER DISEASE PATIENTS” (Umecrine Cognition AB, priority 2021, published 2024).

What was measured:
PBC-related fatigue = conditions: patients suffering from PBC-related fatigue
[1] = system: rats following bile duct ligation (BDL)

Molecule | Benefit in PBC-related fatigue (PBC-related fatigue) | Effect on whole body fatigue [1]
CNCCC(Oc1ccc(C(F)(F)F)cc1)c1ccccc1 (stereo not shown) [Fluoxetine] | neither have proven beneficial | 
Rituximab | neither have proven beneficial | 
dehydroepiandrosterone sulphate [DHEAS] |  | positive effect
NC(=O)C[S+]([O-])C(c1ccccc1)c1ccccc1 (stereo not shown) [Modafinil] | neither have proven beneficial | 
